Literature values, collected in patent publication US9675585B1, “Extended release pharmaceutical formulations” (Ezra Pharma, priority 2016, dated 2017).

CCCCC(=O)N(Cc1ccc(-c2ccccc2-c2nnn[nH]2)cc1)[C@H](C(=O)O)C(C)C [valsartan]
time after which plasma concentration reaches very low level (following Cmax): 10 to 12 h | Tmax (oral administration): 2 to 4 h
